Literature values in US10201577B2, “Compositions and methods for enhancing working and long-term memory support using new combination of ginkgo biloba and panax ginseng and associated components” (KEYVIEW LABS, INC., priority 2017, dated 2019).

Tests used:
[1] = target: T1, choline acetyltransferase (Homo sapiens, UniProt P28329); conditions: isolated Rb1
T1 sequence (P28329 1-748): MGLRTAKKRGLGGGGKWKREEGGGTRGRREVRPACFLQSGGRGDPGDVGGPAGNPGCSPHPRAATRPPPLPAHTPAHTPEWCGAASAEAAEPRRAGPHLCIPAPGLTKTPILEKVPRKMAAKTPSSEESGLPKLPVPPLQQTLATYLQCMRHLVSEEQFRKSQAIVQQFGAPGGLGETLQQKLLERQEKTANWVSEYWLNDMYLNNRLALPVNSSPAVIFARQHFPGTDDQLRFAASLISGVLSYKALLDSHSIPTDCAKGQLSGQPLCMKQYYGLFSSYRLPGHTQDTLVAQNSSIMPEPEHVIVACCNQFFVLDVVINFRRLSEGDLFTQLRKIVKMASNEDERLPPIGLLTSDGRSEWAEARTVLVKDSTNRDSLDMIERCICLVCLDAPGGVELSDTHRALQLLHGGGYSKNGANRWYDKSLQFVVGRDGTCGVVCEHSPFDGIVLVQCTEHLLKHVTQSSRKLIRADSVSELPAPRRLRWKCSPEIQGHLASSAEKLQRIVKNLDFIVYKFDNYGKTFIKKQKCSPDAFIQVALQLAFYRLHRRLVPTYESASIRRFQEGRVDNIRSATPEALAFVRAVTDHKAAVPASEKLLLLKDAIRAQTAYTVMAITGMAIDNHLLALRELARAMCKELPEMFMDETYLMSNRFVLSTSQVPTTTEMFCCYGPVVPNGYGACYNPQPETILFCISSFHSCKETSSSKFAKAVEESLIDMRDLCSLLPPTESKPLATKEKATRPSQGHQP

[2] = test system: acetylcholine release; conditions: isolated Rb1
[3] = test system: long term potentiation (LTP); conditions: in vivo
[4] = in vivo, po

choline acetyltransferase activity [1] | elimination half-life [4] | time of peak plasma level [4] | SMILES | acetylcholine release [2] | long term potentiation (LTP) [3]
stimulates | – | – | CC(C)=CCC[C@](C)(O[C@@H]1O[C@H](CO[C@@H]2O[C@H](CO)[C@@H](O)[C@H](O)[C@H]2O)[C@@H](O)[C@H](O)[C@H]1O)[C@H]1CC[C@]2(C)[C@@H]1[C@H](O)C[C@@H]1[C@@]3(C)CC[C@H](O[C@@H]4O[C@H](CO)[C@@H](O)[C@H](O)[C@H]4O[C@@H]4O[C@H](CO)[C@@H](O)[C@H](O)[C@H]4O)C(C)(C)[C@@H]3CC[C@]12C [Rb1] | stimulates | capable of in vivo modulation
– | 4.31 ± 0.49 h | around 2.25±0.45 hours | CC1C(=O)OC2C(O)C34C5CC(C(C)(C)C)C36C(OC(=O)C6O)OC4(C(=O)O5)C12O (centres unmarked) [Ginkgolide B] | – | –
